# What was measured:
# H. pylori FP 1757 [1] = experiment: In vitro anti-microbial activity against Helicobacter pylori (two-fold agar plate dilution method); assay type: cell-based; details: FP1757, 72 h, test strain H. pylori FP 1757, Brucella agar with 7% horse blood, 37° C., 3 days, 10% CO2
# H. pylori FP 1757 [2] = experiment: Therapeutic effects in mouse model (H. pylori infection, eradication); assay type: in vivo, male ICR mice; details: 0.32 mg/kg/time, oral, twice per day for 4 days; mice sacrificed 2 weeks after final administration
# Method: 1.5 ml of approx. 10^8 cfu/ml of H. pylori FP 1757 was orally infected into 4 weeks old male ICR mice (Nippon SLC, Hamamatsu, Japan) which had been fasted overnight. […] The test compound was suspended in 0.5% methylcellulose and administered to the mice. The mice were sacrificed at 2 weeks after the final administration and the gastric mucosa was scraped and homogenized in 1 ml of 0.1 M phosphate buffered saline. 0.1 ml aliquots were inoculated onto Brucella agar plate containing 3% horse serum, 2% starch and antibiotics. All plates were incubated at 37° C. under 10% CO2 for 4 or 5 days. Colonies grown on the plate were counted, and the therapeutic effect was evaluated.
# in vivo = experiment: in vivo; design: species or system male rats; details: rat, po
# Method: The test compound suspended in 0.5% methylcellulose was orally administered to male rats at a dose of 100 or 32 mg/kg/day for 2 weeks.
structure (smiles),measurement,setting,value
"NCc1nnc(SC2=C(C(=O)O)N3C(=O)[C@@H](NC(=O)Cc4ccccc4)[C@H]3SC2)s1.O=C(O)C(F)(F)F [Example 24, 7β-(2-phenylacetamido)-3-(5-aminomethyl-1,3,4-thiadiazol-2-yl)thio-3-cephem-4-carboxylic acid trifluoroacetic acid salt]",MIC,H. pylori FP 1757 [1],< 0.02 µg/mL
"O=C(O)Cc1csc(SC2=C(C(=O)O)N3C(=O)[C@@H](NC(=O)Cc4cccs4)[C@H]3SC2)n1 [Example 72, 7β-[2-(2-Thienyl)acetamido]-3-(4-carboxymethylthiazol-2-yl)thio-3-cephem-4-carboxylic acid]",eradication,H. pylori FP 1757 [2],> 80%
"NC(=O)Cc1csc(SC2=C(C(=O)O)N3C(=O)[C@@H](NC(=O)Cc4ccccc4)[C@H]3SC2)n1 [Example 14, 7β-(2-Phenylacetamido)-3-(4-carbamoylmethylthiazol-2-yl)thio-3-cephem-4-carboxylic acid]",NOAEL at 336 h,in vivo,100 mg/kg/day
